Assay results from patent US9938258B2 (Karyopharm Therapeutics Inc., priority 2012, dated 2018).
Where two headings read alike, the source gives them in different places.

Tests used:
Z138 cells = experiment: MTT cell proliferation assay, Z138; assay type: cell-based; settings: Homo sapiens
Method: (§1) The MTT cell proliferation assay was used to study the cytotoxic properties of the compounds. The assay was performed according to the method described by Roche Molecular Biochemicals, with minor modifications. The assay is based on the cleavage of the tetrazolium salt, MTT, in the presence of an electron-coupling reagent. The water-insoluble formazan salt produced must be solubilized in an additional step. Cells grown in a 96-well tissue culture plate were incubated with the MTT solution for approximately 4 hours. After this incubation period, a water-insoluble formazan dye formed. After solubilization, the formazan dye was quantitated using a scanning multi-well spectrophotometer (ELISA reader). […] The cells were seeded at 5,000-10,000 cells in each well of 96-well plate in 100 μL of fresh culture medium and were allowed to attach overnight. The stock solutions of the compounds were diluted in 100 μL cell culture medium to obtain eight concentrations of each test compound, ranging from 1 nM to 30 μM. […] All optical densities were measured at 490 nm using a Vmax Kinetic Microplate Reader (Molecular Devices). In most cases, the assay was performed in duplicate and the results were presented as a mean percent inhibition to the negative control±SE. The following formula was used to calculate the percent of inhibition: Inhibition (%)=(1-(ODo/OD)) ×100.
(§2) The compounds were tested against MS751, Z138 and 3T3 cells. The MS751 cell line is derived from a metastasis to lymph node of human cervix from a patient diagnosed with squameous cell carcinoma of the cervix. The Z138 cell line is a mature B-cell acute lymphoblastic leukemia cell line derived from a patient with chronic lumphocytic leukemia. 3T3 cells are standard fibroblast cells; they were originally isolated from Swiss mouse embryo tissue.

3T3 cells = experiment: MTT cell proliferation assay, 3T3; assay type: cell-based, mouse; settings: Mus musculus
Method: as §1, §2

MS751 cells = experiment: MTT cell proliferation assay, MS751; assay type: cell-based, human; settings: Homo sapiens
Method: as §1, §2

[1] = Z-138, Z138 cells, approximately 64-72 hours incubation, read-out: MTT Assay IC50, Z138
[2] = NIH3T3, 3T3 cells, approximately 64-72 hours incubation, read-out: MTT Assay IC50, 3T3
[3] = MS751, MS751 cells, approximately 64-72 hours incubation, read-out: MTT Assay IC50, MS751
[4] = Z-138, Z138 cells, eight concentrations 1 nM to 30 μM, incubation approximately 64-72 hours, read-out: MTT Assay IC50, Z138
[5] = NIH3T3, 3T3 cells, eight concentrations 1 nM to 30 μM, incubation approximately 64-72 hours, read-out: MTT Assay IC50, 3T3
[6] = MS751, MS751 cells, eight concentrations 1 nM to 30 μM, incubation approximately 64-72 hours, read-out: MTT Assay IC50, MS751

Row | Structure (SMILES) | IC50 (Z138 cells; [1]) [µM] | IC50 (3T3 cells; [2]) [µM] | IC50 (MS751 cells; [3]) [µM] | IC50 (Z138 cells; [4]) [µM] | IC50 (3T3 cells; [5]) [µM] | IC50 (MS751 cells; [6]) [µM] | also measured
1 | COc1ccc(/C=C/C(=O)NCC2Cc3cc(-c4ccc(C(C)=O)s4)cc(Cl)c3O2)cn1 (stereo not drawn) [Compound 296, (E)-N-((5-(5-acetylthiophen-2-yl)-7-chloro-2,3-dihydrobenzofuran-2-yl)methyl)-3-(6-methoxypyridin-3-yl)acrylamide] | 5 to 30 | > 30 | 5 to 30 | – | – | – | –
2 | CC(=O)c1ccc(-c2cc(Cl)c3c(c2)CC(CNC(=O)/C=C/c2c(C)nn(-c4ccc(F)cc4)c2C)O3)s1 (stereo not drawn) [Compound 208, (E)-N-((5-(5-acetylthiophen-2-yl)-7-chloro-2,3-dihydrobenzofuran-2-yl)methyl)-3-(1-(4-fluorophenyl)-3,5-dimethyl-1H-pyrazol-4-yl)acrylamide] | 5 to 30 | > 30 | 5 to 30 | – | – | – | –
3 | CC(=O)c1ccc(-c2cc(Cl)c3c(c2)CC(CNC(=O)/C=C/c2ccc(C)o2)O3)s1 (stereo not drawn) [Compound 150, (E)-N-((5-(5-acetylthiophen-2-yl)-7-chloro-2,3-dihydrobenzofuran-2-yl)methyl)-3-(5-methylfuran-2-yl)acrylamide] | – | – | – | > 30 | > 30 | > 30 | –
4 | CC(=O)c1ccc(-c2cc(Cl)c3c(c2)CC(CNC(=O)/C=C/C2C(Cl)=NC4=CC=CCN42)O3)s1 (stereo not drawn) [Compound 120, (E)-N-((5-(5-Acetylthiophen-2-yl)-7-chloro-2,3-dihydrobenzofuran-2-yl)methyl)-3-(2-chloro-3,5-dihydroimidazo[1,2-a]pyridin-3-yl)acrylamide] | – | – | – | 5 to 30 | 5 to 30 | 5 to 30 | –
5 | CC(=O)c1ccc(-c2cc(Cl)c3c(c2)CC(CNC(=O)/C=C/n2cncn2)O3)s1 (stereo not drawn) [Compound 229, (E)-N-((5-(5-acetylthiophen-2-yl)-7-chloro-2,3-dihydrobenzofuran-2-yl)methyl)-3-(1H-1,2,4-triazol-1-yl)acrylamide] | > 30 | > 30 | > 30 | – | – | – | –
6 | CC(=O)c1ccc(-c2cc(C)c3c(c2)CC(CNC(=O)/C=C/c2cccnc2)O3)s1 (stereo not drawn) [Compound 138, (E)-N-((5-(5-acetylthiophen-2-yl)-7-methyl-2,3-dihydrobenzofuran-2-yl)methyl)-3-(pyridin-3-yl)acrylamide] | – | – | – | < 0.1 | 0.1 to 5 | < 0.1 | –
7 | CC(=O)c1ccc(-c2cc(Cl)c3c(c2)CC(CNC(=O)/C=C/c2cc(C)on2)O3)s1 (stereo not drawn) [Compound 277, (E)-N-((5-(5-acetylthiophen-2-yl)-7-chloro-2,3-dihydrobenzofuran-2-yl)methyl)-3-(5-methylisoxazol-3-yl)acrylamide] | – | – | – | > 30 | > 30 | 0.1 to 5 | –
8 | CC(C)(O)c1ccc(-c2cc(Cl)c3c(c2)CC(CNC(=O)/C=C/c2ccc(N)nc2)O3)s1 (stereo not drawn) [Compound 321, (E)-3-(6-aminopyridin-3-yl)-N-((7-chloro-5-(5-(2-hydroxypropan-2-yl)thiophen-2-yl)-2,3-dihydrobenzofuran-2-yl)methyl)acrylamide] | < 0.1 | 5 to 30 | 0.1 to 5 | – | – | – | –
9 | CC(O)c1ccc(-c2cc(Cl)c3c(c2)CC(CNC(=O)/C=C/c2ccc(N)nc2)O3)s1 (stereo not drawn) [Compound 306, (E)-3-(6-aminopyridin-3-yl)-N-((7-chloro-5-(5-(1-hydroxyethyl)thiophen-2-yl)-2,3-dihydrobenzofuran-2-yl)methyl)acrylamide] | 0.1 to 5 | > 30 | 0.1 to 5 | – | – | – | –
10 | CC(=O)c1ccc(-c2cc(Cl)c3c(c2)CC(CNC(=O)/C=C/Cc2cccnc2)O3)s1 (stereo not drawn) [Compound 222, (E)-N-((5-(5-acetylthiophen-2-yl)-7-chloro-2,3-dihydrobenzofuran-2-yl)methyl)-4-(pyridin-3-yl)but-2-enamide] | 0.1 to 5 | 5 to 30 | 0.1 to 5 | – | – | – | –
11 | Nc1ccc(/C=C/C(=O)NCC2Cc3cc(-c4cnc(C(=O)N5CCOCC5)c(F)c4)cc(Cl)c3O2)cn1 (stereo not drawn) [Compound 329, (E)-3-(6-Aminopyridin-3-yl)-N-((7-chloro-5-(5-fluoro-6-(morpholine-4-carbonyl)pyridin-3-yl)-2,3-dihydrobenzofuran-2-yl)methyl)acrylamide] | < 0.1 | 5 to 30 | 0.1 to 5 | – | – | – | –
12 | CC(=O)c1ccc(-c2cc(Cl)c3c(c2)CC(CNC(=O)/C=C/c2cnn(C)c2)O3)s1 (stereo not drawn) [Compound 149, (E)-N-((5-(5-acetylthiophen-2-yl)-7-chloro-2,3-dihydrobenzofuran-2-yl)methyl)-3-(1-methyl-1H-pyrazol-4-yl)acrylamide] | – | – | – | > 30 | > 30 | > 30 | –
13 | CC(=O)c1ccc(-c2cc(Cl)c3c(c2)CC(CNC(=O)/C=C/c2nccs2)O3)s1 (stereo not drawn) [Compound 207] | > 30 | > 30 | > 30 | – | – | – | –
14 | CC(=O)c1ccc(-c2cc(Cl)c3c(c2)CC(CNC(=O)/C=C/c2ccc(O)nc2)O3)s1 (stereo not drawn) [Compound 311, (E)-N-((5-(5-acetylthiophen-2-yl)-7-chloro-2,3-dihydrobenzofuran-2-yl)methyl)-3-(6-hydroxypyridin-3-yl)acrylamide] | – | – | – | – | – | – | IC50 (Z138 cells; Z-138, read-out: MTT Assay IC50, Z138): > 30 µM; IC50 (3T3 cells; NIH3T3, read-out: MTT Assay IC50, 3T3): > 30 µM; IC50 (MS751 cells; MS751, read-out: MTT Assay IC50, MS751): > 30 µM
15 | CC(=O)c1ccc(-c2cc(Cl)c3c(c2)CC(CNC(=O)/C=C/c2cccnn2)O3)o1 (stereo not drawn) [Compound 314, (E)-N-((5-(5-acetylfuran-2-yl)-7-chloro-2,3-dihydrobenzofuran-2-yl)methyl)-3-(pyridazin-3-yl)acrylamide] | 0.1 to 5 | 0.1 to 5 | 0.1 to 5 | – | – | – | –
16 | CCn1cc(/C=C/C(=O)NCC2Cc3cc(-c4ccc(C(C)=O)s4)cc(Cl)c3O2)cn1 (stereo not drawn) [Compound 155, (E)-N-((5-(5-acetylthiophen-2-yl)-7-chloro-2,3-dihydrobenzofuran-2-yl)methyl)-3-(1-ethyl-1H-pyrazol-4-yl)acrylamide] | – | – | – | > 30 | > 30 | > 30 | –
17 | CC(=O)c1ccc(-c2cc(Cl)c3c(c2)CC(CNC(=O)/C=C/c2ccccc2N)O3)s1 (stereo not drawn) [Compound 110, (E)-N-((5-(5-acetylthiophen-2-yl)-7-chloro-2,3-dihydrobenzofuran-2-yl)methyl)-3-(2-aminophenyl)acrylamide] | – | – | – | > 30 | > 30 | > 30 | –
18 | CC(=O)c1ccc(-c2cc(Cl)c3c(c2)CC(CNC(=O)/C=C/c2cccnn2)O3)s1 (single isomer, unassigned) [Compound 317, (E)-N-((5-(5-acetylthiophen-2-yl)-7-chloro-2,3-dihydrobenzofuran-2-yl)methyl)-3-(pyridazin-3-yl)acrylamide] | 0.1 to 5 | > 30 | 0.1 to 5 | – | – | – | –
19 | CC(=O)c1ccc(-c2cc(Cl)c3c(c2)CC(CNC(=O)/C=C/c2[nH]cnc2C)O3)s1 (stereo not drawn) [Compound 212, (E)-N-((5-(5-acetylthiophen-2-yl)-7-chloro-2,3-dihydrobenzofuran-2-yl)methyl)-3-(4-methyl-1H-imidazol-5-yl)acrylamide] | 5 to 30 | > 30 | 5 to 30 | – | – | – | –
20 | CC(=O)c1ccc(-c2cc(Cl)c3c(c2)CC(CNC(=O)/C=C/c2c(C)nc4sc(C)cn24)O3)s1 (stereo not drawn) [Compound 161, (E)-N-((5-(5-acetylthiophen-2-yl)-7-chloro-2,3-dihydrobenzofuran-2-yl)methyl)-3-(2,6-dimethylimidazo[2,1-b]thiazol-5-yl)acrylamide] | – | – | – | > 30 | > 30 | > 30 | –
